Source: US20190062305A1, “PYRIDYL OR PYRAZINYL COMPOUNDS CARRYING A METHYL-BOUND ALPHA-AMINO ACID AMIDE GROUP” (ABBVIE DEUTSCHLAND GMBH & CO. KG, priority 2015, published 2019)
Structures can show the parent of a compound that is named as a salt.

Experiments:
[1] = biological target: T1, 5-HT2C receptor (Homo sapiens, UniProt P28335); test: Human 5-HT2C functional assay (beta-arrestin2 recruitment, U2OS_HTR2C_β-Arrestin cells); format: cell-based; conditions: for EC50: beta-arrestin2 recruitment, U2OS_HTR2C_β-Arrestin cells, 1.5 h incubation, read-out: EC50 5-HT2C (potency in functional assay)
T1 construct: host or cells: U2OS
Outline: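 U2OS cells expressing HTR2C with β-galactosidase complementation, switched to 1% serum medium 24 h post-plating, were treated next day with compound for 1.5 h; chemiluminescence read. Response expressed as % of 10 µM 5-HT or maximal 5-HT effect; EC50 from 4-parameter variable-slope fit.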

[2] = Metabolic stability in human liver microsomes, unbound intrinsic clearance (Cl int/fu mic); format: in vitro ADME; conditions: 0.5 μM compound, NADPH; for CLint scaled at 0.5 μM: human, liver microsomes, pH 7.4, human liver microsomes 0.25 mg/mL, read-out: Cl int, mic unb. (h) [l/h/kg] (unbound intrinsic clearance, human)
Experimental: Samples of the tested compounds (0.5 μM) were preincubated together with human liver microsomes (0.25 mg of microsomal protein/mL) in 0.05 M potassium phosphate buffer of pH 7.4 in microtiter plates at 37° C. for 5 minutes. The reaction was started by adding NADPH (1.0 mM). After 0, 5, 10, 15, 20 and 30 minutes, an aliquot was removed, the reaction was cooled and stopped by adding twice the amount of quench solution consisting of acetonitrile/methanol 1:1, and containing 0.2 μM carbutamide as internal standard. The samples were frozen until analyzed. The remaining concentration of undegraded test substance was determined by liquid chromatography-tandem mass spectrometry (LC-MS/MS). The half-life (t1/2) was determined from the gradient of the ratio of the signal of (test substance/internal standard)/unit time plot, allowing the calculation of the half-life of the test substance, assuming first order kinetics, from the decrease in the concentration of the compound with time. The microsomal clearance ([…]) was calculated as follows: […]=((ln(2)/t 1⁄2)/Microsomal Protein Concentration (mg/ml))*1000, leading to the unit of uL/min/mg. The scaled clearance (mClin_scaled) was calculated as […]_scaled=m CLint*(Microsomal Yield (mg/kg BW))/1000000*60, leading to the units L/h/kg. The Microsomal Yield is defined by the specifics of the used microsomes. Calculations were modified from references: Di, The Society for Biomolecular Screening, 2003, 453-462; Obach, D M D, 1999 vol 27. N 11, 1350-1359. A suspension of 0.25 mg/ml microsomal protein spiked with 0.5 μM of test compound was pipetted on one side of a HTDialysis device (HTDialysis LLC, 37 Ledgewood Drive, Gales Fery CT 06335) separated by a membrane with a MWcut off 12-14 K. 50 mM K-Phosphate buffer (pH 7.4) was added on the other side of the well. After incubation at 37° C. for 4 h while shaking at 150 rpm, aliquots of both sides were taken, quenched with MeOH/ACN 1:1 and 0.2 μM of internal standard and frozen until analysis by LCMSMS Cl int unbound=Cl int/fu mic

[3] = relative efficacy vs response to 10 μM 5-HT or maximal 5-HT effect (100%)

T1 sequence (P28335 33-458): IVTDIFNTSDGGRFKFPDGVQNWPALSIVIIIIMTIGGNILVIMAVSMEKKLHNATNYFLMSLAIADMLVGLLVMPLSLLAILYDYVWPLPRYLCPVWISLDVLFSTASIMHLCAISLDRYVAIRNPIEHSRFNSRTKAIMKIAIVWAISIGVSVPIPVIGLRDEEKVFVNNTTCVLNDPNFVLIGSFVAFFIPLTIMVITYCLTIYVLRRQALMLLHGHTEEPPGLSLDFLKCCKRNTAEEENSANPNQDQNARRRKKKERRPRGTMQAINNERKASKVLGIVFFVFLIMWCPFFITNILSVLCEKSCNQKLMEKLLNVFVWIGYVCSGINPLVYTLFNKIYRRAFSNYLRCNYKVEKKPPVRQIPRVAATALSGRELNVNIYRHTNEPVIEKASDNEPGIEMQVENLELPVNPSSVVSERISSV
T1 sequence (P32121 whole entry partner): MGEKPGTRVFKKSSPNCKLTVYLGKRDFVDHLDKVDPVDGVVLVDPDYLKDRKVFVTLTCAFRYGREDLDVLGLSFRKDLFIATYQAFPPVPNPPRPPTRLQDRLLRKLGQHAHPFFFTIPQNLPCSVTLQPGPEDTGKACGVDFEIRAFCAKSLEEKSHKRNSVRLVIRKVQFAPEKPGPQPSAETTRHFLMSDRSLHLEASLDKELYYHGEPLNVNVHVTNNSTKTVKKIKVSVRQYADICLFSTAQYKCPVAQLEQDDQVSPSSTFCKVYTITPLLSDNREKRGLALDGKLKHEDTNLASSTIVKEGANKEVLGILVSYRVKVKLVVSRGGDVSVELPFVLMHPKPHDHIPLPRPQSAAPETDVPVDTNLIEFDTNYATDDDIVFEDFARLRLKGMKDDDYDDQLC

Compound	EC50 [1] [nM]	Emax [1, 3] [%]	CLint scaled at 0.5 μM [2] [L/h/kg]	% efficacy [1, 3]	Cl int, mic unb. (h) [l/h/kg] (unbound intrinsic clearance, human) ([2]; human liver microsomes 0.25 mg/mL)
COc1nc(OC2CCC(C(F)(F)F)CC2)c(F)cc1CNC(=O)[C@@H]1C[C@H]2C[C@H]2N1 (stereo partly drawn) [Example 82, (1R,3 S,5R)—N-[[5-Fluoro-2-methoxy-6-[4-(trifluoromethyl)cyclohexoxy]-3-pyridyl]methyl]-4-azabicyclo[3.1.0]hexane-3-carboxamide]	20 to 200	> 70	5 to 50	–	–
COc1nc(N2CCOC(c3ccccc3)C2)c(F)cc1CNC(=O)[C@@H]1CCCN1 (stereo partly drawn) [Example 173, (2S)—N-[[5-Fluoro-2-methoxy-6-(2-phenylmorpholin-4-yl)-3-pyridyl]methyl]-pyrrolidine-2-carboxamide; 2,2,2-trifluoroacetic Acid]	200 to 1000	50 to 70	5 to 50	–	–
COc1nc(OC2CCC(F)(F)CC2)c(F)cc1CNC(=O)[C@@H]1C[C@@H](C)CN1C [Example 61, (2S,4R)—N-[[6-(4,4-Difluorocyclohexoxy)-5-fluoro-2-methoxy-3-pyridyl]methyl]-1,4-dimethyl-pyrrolidine-2-carboxamide Hydrochloride]	20 to 200	> 70	5 to 50	–	–
COc1nc(N[C@H]2CC[C@H](C(F)(F)F)CC2)c(F)cc1CNC(=O)[C@@H]1CCCN1.Cl [Example 144, (2S)—N-[[5-Fluoro-2-methoxy-6-[[trans-4-(trifluoromethyl)cyclohexyl]amino]-3-pyridyl]methyl]pyrrolidine-2-carboxamide Hydrochloride]	20 to 200	–	–	+++ (>70%)	++ (from 5 to <50 l/h/kg)
COc1nc(OC2CCC(CF)CC2)c(F)cc1CNC(=O)[C@@H]1CCCN1 (stereo partly drawn) [Example 75, (2S)—N-[[5-fluoro-6-[4-(fluoromethyl)cyclohexoxy]-2-methoxy-3-pyridyl]methyl]-pyrrolidine-2-carboxamide; 2,2,2-trifluoroacetic Acid]	< 20	> 70	5 to 50	–	–
COc1nc(OCC(C)(C(F)(F)F)C(F)(F)F)c(F)cc1CNC(=O)[C@@H]1CCCN1 [Example 109, (2S)—N-[[5-Fluoro-2-methoxy-6-[3,3,3-trifluoro-2-methyl-2-(trifluoromethyl)propoxy]-3-pyridyl]methyl]pyrrolidine-2-carboxamide Hydrochloride]	< 20	> 70	50 to 500	–	–
COc1nc(OCC(F)(F)C(F)F)c(F)cc1CNC(=O)[C@@H]1CCCN1 [Example 46, (2S)—N-[[5-Fluoro-2-methoxy-6-(2,2,3,3-tetrafluoropropoxy)-3-pyridyl]methyl]-pyrrolidine-2-carboxamide; Succinic Acid]	< 20	> 70	< 5	–	–
COc1nc(OC(C)C(F)(F)C(F)F)c(F)cc1CNC(=O)[C@@H]1CCCN1 (stereo partly drawn) [Example 53, (2S)—N-[[5-Fluoro-2-methoxy-6-(2,2,3,3-tetrafluoro-1-methyl-propoxy)-3-pyridyl]-methyl]pyrrolidine-2-carboxamide; Succinic Acid]	< 20	> 70	< 5	–	–
COc1nc(C2CC2)c(F)cc1CNC(=O)[C@@H]1CCCN1 [Example 127, (2S)—N-[(6-Cyclopropyl-5-fluoro-2-methoxy-3-pyridyl)methyl]pyrrolidine-2-carboxamide; 2,2,2-trifluoroacetic Acid]	200 to 1000	> 70	5 to 50	–	–
COc1nc(OCC2(C(F)(F)F)CC2)c(F)cc1CN(C)C(=O)[C@@H]1CCCN1 [Example 76, (2S)—N-[[5-Fluoro-2-methoxy-6-[[1-(trifluoromethyl)cyclopropyl]methoxy]-3-pyridyl]methyl]-N-methyl-pyrrolidine-2-carboxamide Hydrochloride]	< 20	> 70	< 5	–	–
COc1nc(OC2CCC(C(F)F)CC2)c(F)cc1CNC(=O)[C@@H]1CCCN1 (stereo partly drawn) [Example 66, (2S)—N-[[6-[4-(Difluoromethyl)cyclohexoxy]-5-fluoro-2-methoxy-3-pyridyl]methyl]-pyrrolidine-2-carboxamide hydrochloride]	< 20	> 70	5 to 50	–	–
COc1nc(OC2CCC(F)(F)CC2)cnc1CNC(=O)[C@@H]1CCCN1 [Example 108, (2S)—N-[[5-(4,4-Difluorocyclohexoxy)-3-methoxy-pyrazin-2-yl]methyl]pyrrolidine-2-carboxamide; 2,2,2-trifluoroacetic Acid]	20 to 200	> 70	< 5	–	–
COc1nc(C2CCCOC2)c(F)cc1CNC(=O)[C@@H]1CCCN1 (stereo partly drawn) [Example 158, (2S)—N-[(5-Fluoro-2-methoxy-6-tetrahydropyran-3-yl-3-pyridyl)methyl]-pyrrolidine-2-carboxamide Hydrochloride]	20 to 200	> 70	< 5	–	–
COc1nc(N2CCCCC2)c(F)cc1CNC(=O)[C@@H]1CCCN1 [Example 128, (2S)—N-[[5-Fluoro-2-methoxy-6-(1-piperidyl)-3-pyridyl]methyl]pyrrolidine-2-carboxamide]	20 to 200	> 70	< 5	–	–
COc1nc(OC2CC(C(F)(F)F)C2)c(F)cc1CNC(=O)[C@@H]1CCCN1 (stereo partly drawn) [Example 105, (2S)—N-[[5-Fluoro-2-methoxy-6-[3-(trifluoromethyl)cyclobutoxy]-3-pyridyl]-methyl]pyrrolidine-2-carboxamide Hydrochloride]	< 20	> 70	5 to 50	–	–
COCCCc1nc(OC)c(CNC(=O)[C@@H]2CCCN2)cc1F [Example 168, (2S)—N-[[5-Fluoro-2-methoxy-6-(3-methoxypropyl)-3-pyridyl]methyl]pyrrolidine-2-carboxamide]	200 to 1000	> 70	< 5	–	–
COc1nc(OCC2CCC(F)(F)C2)c(F)cc1CNC(=O)[C@@H]1CCCN1 (stereo partly drawn) [Example 6, (2S)—N-[[6-[(3,3-Difluorocyclopentyl)methoxy]-5-fluoro-2-methoxy-3-pyridyl]-methyl]pyrrolidine-2-carboxamide; Fumaric Acid]	< 20	> 70	< 5	–	–
COc1nc(OCC2(C(F)F)CC2)c(F)cc1CNC(=O)[C@@H]1CCCN1C [Example 96, (2S)—N-[[6-[[1-(Difluoromethyl)cyclopropyl]methoxy]-5-fluoro-2-methoxy-3-pyridyl]methyl]-1-methyl-pyrrolidine-2-carboxamide; (2S,3S)-2,3-dihydroxybutanedioic Acid]	< 20	> 70	< 5	–	–
COc1nc(OCC2CC(F)(F)C2(F)F)c(F)cc1CNC(=O)[C@@H]1CCCN1C (stereo partly drawn) [Example 90, (2S)—N-[[5-Fluoro-2-methoxy-6-[(2,2,3,3-tetrafluorocyclobutyl)methoxy]-3-pyridyl]methyl]-1-methyl-pyrrolidine-2-carboxamide Hydrochloride]	< 20	> 70	< 5	–	–
COc1nc(N2CCC3C(C2)C3(F)F)c(F)cc1CNC(=O)[C@@H]1CCCN1 (stereo partly drawn) [Example 184, (2S)—N-[[6-(7,7-Difluoro-4-azabicyclo[4.1.0]heptan-4-yl)-5-fluoro-2-methoxy-3-pyridyl]methyl]pyrrolidine-2-carboxamide; 2,2,2-trifluoroacetic Acid]	20 to 200	> 70	5 to 50	–	–
